Assay results published in patent publication US8980906B2, “Pyridonemorphinan analogs and biological activity on opioid receptors” (Purdue Pharma L.P., priority 2012, dated 2015).

Tests used:
[1] = molecular target: T1, κ-opioid receptor (Homo sapiens (Human), UniProt P41145); test: κ-opioid receptor radioligand dose-displacement binding assay ([3H]-U69,593); conditions: binding affinity, [3H]-U69,593 displacement
Outline: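 Competition binding with 0.4 nM [3H]-U69,593 and 15 μg membrane protein from HEK 293 cells expressing recombinant human κ receptor, in 50 mM Tris pH 7.4 with 5% DMSO, 1 h at about 25 °C. Nonspecific binding defined with 10 μM naloxone or U69,593; bound ligand collected by GF/C filtration and scintillation counting.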

[2] = molecular target: μ-opioid receptor (Homo sapiens (Human), UniProt P35372); test: μ-opioid receptor radioligand dose-displacement binding assay ([3H]-diprenorphine); conditions: binding affinity, [3H]-diprenorphine displacement; read-out: Ki (nM) Opioid Receptor μ
[3] = molecular target: T1, κ-opioid receptor; test: κ-opioid receptor [35S]GTPγS functional assay, HEK-293 or CHO cells; assay type: biochemical; conditions: for Emax: relative to U69,593, HEK-293 or CHO cells
[4] = molecular target: ORL-1 receptor (Homo sapiens (Human), UniProt P41146); test: ORL-1 receptor radioligand binding assay ([3H]-nociceptin); conditions: binding affinity, [3H]-nociceptin displacement
Description: ORL-1 Receptor Binding Assay Procedure: Membranes from recombinant HEK-293 cells expressing the human opioid receptor-like receptor (ORL-1) (Perkin Elmer, Shelton, Conn.) were prepared by lysing cells in ice-cold hypotonic buffer (2.5 mM MgCl2, 50 mM HEPES, pH 7.4) (10 ml/10 cm dish) followed by homogenization with a tissue grinder/Teflon pestle. Membranes were collected by centrifugation at 30,000×g for […] at 4° C. and pellets resuspended in hypotonic buffer to a final concentration of 1-3 mg/ml. Protein concentrations were determined using the BioRad protein assay reagent with bovine serum albumen as standard. Aliquots of the ORL-1 receptor membranes were stored at −80° C.
Radioligand binding assays (screening and dose-displacement) used 0.1 nM [^3H]-nociceptin (Perkin Elmer, Shelton, Conn.; 87.7 Ci/mmole) with 12 μg membrane protein in a final volume of 500 μl binding buffer (10 mM MgCl2, 1 mM EDTA, 5% DMSO, 50 mM HEPES, pH 7.4). Non-specific binding was determined in the presence of […] unlabeled nociceptin (American Peptide Company). All reactions were performed in 96-deep well polypropylene plates for 1 h at room temperature. Binding reactions were terminated by rapid filtration onto 96-well Unifilter GF/C filter plates (Perkin Elmer, Shelton, Conn.) presoaked in 0.5% polyethylenimine (Sigma). Harvesting was performed using a 96-well tissue harvester (Perkin Elmer, Shelton, Conn.) followed by three filtration washes with 500 μl ice-cold binding buffer. Filter plates were subsequently dried at 50° C. for 2-3 hours. Fifty μl/well scintillation cocktail (Perkin Elmer, Shelton, Conn.) was added and plates were counted in a Packard Top-Count for 1 min/well. The data from screening and dose-displacement experiments were analyzed using Microsoft Excel and the curve fitting functions in GraphPad PRISM™, v. 3.0 or higher, respectively, or an in-house function for one-site competition curve-fitting.

| SMILES | Ki [1] [nM] | Ki [2] [nM] | EC50 [3] [nM] | Emax [3] [%] | Ki [4] [nM] |
| --- | --- | --- | --- | --- | --- |
| NC(=O)c1cc2c([nH]c1=O)C[C@]13CCN(CC4CC4)[C@H](Cc4ccc(O)cc41)[C@]3(O)C2 [Compound 5, (6R,6aS,12aR)-15-(cyclopropylmethyl)-2,6a-dihydroxy-10-oxo-6,6a,7,10,11,12-hexahydro-5H-6,12a-(epiminoethano)naphtho[2,1-g]quinoline-9-carboxamide] | 0.58 ± 0.15 | 6.55 ± 2.06 | 4.37 ± 1.11 | 10.2 ± 1.18 | 1330 ± 310 |
| O=C(O)c1cc2c([nH]c1=O)C[C@]13CCN(CC4CC4)[C@H](Cc4ccc(O)cc41)[C@]3(O)C2 [Compound 9, (6R,6aS,12aR)-15-(cyclopropylmethyl)-2,6a-dihydroxy-10-oxo-6,6a,7,10,11,12-hexahydro-5H-6,12a-(epiminoethano)naphtho[2,1-g]quinoline-9-carboxylic acid] | 1.52 ± 0.18 | 3.11 ± 0.9 | > 20000 | 2.33 ± 1.33 | 2320 ± 320 |
| O=C(O)c1cc2c([nH]c1=O)C[C@]13CCN(CC4CC4)[C@H](Cc4ccc(O)cc41)[C@@H]3C2 [Compound 11, (6R,6aR,12aS)-15-(cyclopropylmethyl)-2-hydroxy-10-oxo-6,6a,7,10,11,12-hexahydro-5H-6,12a-(epiminoethano)naphtho[2,1-g]quinoline-9-carboxylic acid] | 18.5 ± 7.73 | 0.52 ± 0.12 | 1.4 ± 0.56 | 19 ± 1.53 | 4.91 ± 0.82 |
